The values below come from US11536729B2, “Method of identifying novel protein aggregation inhibitors based on chemical kinetics” (Cambridge Enterprise Limited, priority 2016, dated 2022).

One experiment concerns the target T1, Aβ42 (Homo sapiens, UniProt P05067).
T1 construct: The recombinant Aβ (M1-42) peptide; made in house; host or cells: E. coli BL21 Gold (DE3)
Briefly: ThT Aβ42 aggregation kinetics with 1-5% pre-formed fibril seeds (surface-catalyzed secondary nucleation). Conditions: 2 μM Aβ42, 0.5- and 5-fold excess. The experiment is classed as biochemical. How it is done: For the seeded experiments, preformed fibrils were prepared just prior to the experiment. Kinetic experiments were set up just as above for a […] Aβ42 samples in 20 mM sodium phosphate buffer, pH 8 with 200 μM EDTA, 0.02% NaN3 and 20 μM ThT. The ThT fluorescence was monitored for 3 hours to verify the formation of fibrils.
Samples were then collected from the wells into low-binding tubes and sonicated for 2 min in a sonicator bath at room temperature. Under the considered conditions (i.e. 4 μM Aβ42), the monomer concentration is negligible at equilibrium (31). The final concentration of fibrils, in monomer equivalents, was considered equal to the initial concentration of monomer. Fibrils were then added to freshly prepared monomer in order to reach either 5% or 10% fibrils final concentration.
Assays were initiated by placing the 96-well plate at 37° C. under quiescent conditions in a plate reader (Fluostar Omega, Fluostar Optima or Fluostar Galaxy, BMGLabtech, Offenburg, Germany). The ThT fluorescence was measured through the bottom of the plate with a 440 nm excitation filter and a 480 nm emission filter. The ThT fluorescence was followed for three repeats of each sample. […]
For the seeded experiments, preformed fibrils were prepared just prior to the experiment. […] The ThT fluorescence was monitored for 3 hours to verify the formation of fibrils. […]

In experiment [1] the test system is SH-SY5Y human neuroblastoma cells. Format: cell-based. Conditions: 0.5 μM Aβ42, 10 μM bexarotene. On the procedure:
Aβ42 oligomers are known to be toxic to cells leading to apoptosis and to cellular death. […] SH-SY5Y human neuroblastoma cells were cultured under standard conditions, at 37° C. in a humidified incubator with 5% CO2. Cells were seeded at a density of 25,000 per well in a white-walled, clear-bottomed 96-well plate and cultured for 24 h in MEM/F12(1:1)/10% Fetal Bovine Serum (FBS) (Gibco). The culture medium was then replaced with pre-warmed phenol red free DMEM without FBS into which the peptide samples or NaPO4 buffer were diluted 1:1. […] The aggregation reaction was set up as above except for the buffer from which NaN3 was removed due to its toxicity. […] All the specified time points correspond to Aβ42 in the lag phase in order to monitor inhibition at the early stage of the aggregation. […] The cells were cultured in the presence of the peptides, buffer and media for further 24 h before the cytotoxic effect was measured.
Cell medium diluted with the same buffer that was used in these experiments was included in some wells in order to evaluate the intrinsic fluorescence of the media and bexarotene.
For the positive control, staurosporine (1 μM) was added to the cells for 2 hours. Caspase-3/7 activity was measured using the Apo-ONE Homogeneous Caspase-3/7 assay (Promega). The fluorogenic caspase-3/7 substrate, rhodamine 110 bis-(N-CBZ-L-aspartyl-L-glutamyl-L-valyl-aspartic acid amide) was diluted 1:100 in the lysis buffer provided and added to the cell medium at a 1:1 ratio. The fluorescence was measured at excitation 480 nm/emission 520 nm in an Optima FluoStar plate reader. In each of the used plates, the toxicity was assessed according to a negative and a positive control.
For comparative purposes between different plates, we normalized the fluorescence values using a parabolic equation (y=ax^b), which corresponds to the evolution of the oligomers as a function of time. Negative and positive controls were set to 1 and 10, respectively. […] Statistical analyses were performed using GraphPad prism 6.0. Results are expressed as mean±SEM.

For the next experiment, the target named is T2, Aβ42 fibrils (Homo sapiens, UniProt P05067).
T2 construct: The recombinant Aβ (M1-42) peptide; made in house; host or cells: E. coli BL21 Gold (DE3)
T2 sequence (P05067 672-713 limits assumed): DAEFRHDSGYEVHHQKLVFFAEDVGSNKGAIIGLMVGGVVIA
Briefly: Dot blot assay with fibril-specific OC antibody (label-free fibril formation). The experiment is classed as biochemical. Conditions: 2 μM Aβ42, 4-fold excess. On the procedure:
Blotting was performed using either Aβ42 fibril-specific antibody (OC, Millipore) or Aβ42 sequence-specific antibody (W0-2, Millipore). […] Aβ42 aliquots were spotted onto a nitrocellulose membrane (0.2 μm, Whatman) and then the membranes were dried and then blocked with Blocking One (Nacalai tesque) before immuno-detection. OC and W0-2 were used according to the manufacturers instructions. Alexa Fluor® 488-conjugated secondary antibodies (Life technologies) were subsequently added and fluorescence detection was performed using Typhoon Trio Imager (GE Healthcare). […] For the calibration curve (FIG. 3d), a series of dilutions between 4 μM and 0.1 μM were performed on freshly prepared Aβ42 fibrils and 4 μL aliquots were deposited onto the same nitrocellulose membrane (0.2 μm, Whatman) as the one used for OC fibril-specific antibody. […] However, under these conditions we could not detect oligomers due to their very low concentration during Aβ42 aggregation even when depositing on the membrane volumes as high as 20 μL.

Like-named read-outs stand apart in the source and are kept apart here.

T1 sequence (P05067 672-713 limits assumed): as above

`C=C(c1ccc(C(=O)O)cc1)c1cc2c(cc1C)C(C)(C)CCC2(C)C` [bexarotene]: on Aβ42, the “effect on aggregation kinetics with 5% pre-formed fibril seeds” value was “concentration-dependent bexarotene-induced delay”. Further, the “incubation time after which detectable toxic Aβ42 species are formed in presence of compound” value in experiment [1] (37° C.) was 7 h. Moreover, the “toxicity (caspase-3) of Aβ42 species in absence of bexarotene, higher than in its presence” value in experiment [1] (aliquot after 0.3 h incubation) and in experiment [1] (aliquot after 4 h incubation) was 65±5% throughout. Moreover, the “level of toxicity generated in the presence of bexarotene” value in experiment [1] (aliquot after 7 h incubation) is “increased to a value similar to that observed in its absence”. Also, at Aβ42 fibrils, the “delay in the time required for half-completion of the aggregation process” value is 2 h.
